Laboratory results published in patent US9994541B2, “Nitroalkene trolox derivatives and methods of use thereof in the treatment and prevention of inflammation related conditions” (Institut Pasteur de Montevideo, priority 2016, dated 2018).

Experiments:
HO-1 = experiment: Western blot of HO-1 protein expression in Raw 264.7 macrophages; type: cell-based, murine; conditions: Raw 264.7 cells, 5 μM, 18 hours
Method: (§1) Raw 264.7 cells, a murine macrophage cell line catalog no. TIB-71TM (ATCC, Manassas, Va.), were treated with NATx0 or NATx5 (5 μM) for 18 hours. Cells were lysed, and total protein concentration was measured with Pierce BCA assay (Thermo Fisher Scientific, Rockford, Ill.). For electrophoresis, 30 μg of protein was used in each line. The proteins were electrophoresed on a Tris/glycine SDS-polyacrylamide gradient gel (10-15%) and transferred to nitrocellulose membrane. The primary antibodies used for detection was rabbit polyclonal anti-HO-1 or anti-GCLM (Abcam, Cambridge, Mass.). Blots were visualized using horseradish peroxidase-conjugated secondary antibodies and ECL Plus detection system (GE Healthcare, Little Chalfont, UK). Blots were detected with a scanner. Protein expression was quantified with ImageQuant TL7.0 software (GE Healthcare, Little Chalfont, UK).

GCLM = experiment: Western blot of GCLM protein expression in Raw 264.7 macrophages; type: cell-based, murine; conditions: Raw 264.7 cells, 5 μM, 18 hours
Method: as §1

[1] = Michael adduct formation with β-mercaptoethanol (UV-visible spectra, stopped-flow kinetics); type: physicochemical; conditions: 25 μM compound, BME 0.54-2.73 mM, absorbance at 260 nm, 25° C.
Method: UV-visible spectra was acquired by a Varian Cary 50 Bio. Scans were taken every min up to 15 min.
(§2) In FIG. 2, it is shown that the reaction between NATx0 and BME was determined to be a second order rate constant. Stopped-flow kinetic measurements were performed using a Rx 2000 stopped flow analyzer (Applied Photophysics). Mixutres of 150 μL NATx0 (25 μM) and solutions of BME at 0.54 mM, 1.09 mM, 1.64 mM, 2.18 mM, and 2.73 mM concentrations.

[2] = Michael adduct formation with glutathione (UV-visible spectra, stopped-flow kinetics); type: physicochemical; conditions: 25 μM compound, absorbance at 260 nm, 25° C.
Method: In FIG. 3, 130 μM NATx0 was incubated with 2 mM Glutathione (Sigma) in 100 mM pH 7 phosphate buffer. UV-visible spectra was acquired by a Varian Cary 50 Bio. Scans were taken every min up to 15 min.
as §2, with “FIG.” for “In FIG.”, “4 illustrates a second order rate constant of” for “2, it is shown that”, “GSH.” for “BME was determined to be a second order rate constant.”

THP-1 cells = experiment: Cell viability (MTT) of THP-1 macrophages stimulated with LPS and ATP; type: cell-based; conditions: THP-1 macrophages activated by LPS or ATP, compound 0.5-20 μM together with first or second signal
Method: (§3) FIGS. 6A and 6B illustrate the effect of NATx0 on cell viability and NLRP3 inflammasome activation. THP-1 cells were differentiated into macrophages (PMA 200 nM, 48 hours). […] The cells were treated with NATx0 at 0.5 μM, 1.0 μM, 2.5 μM, 5.0 μM, 10 μM and 20 μM concentrations together with the first signal or the second signal. Cell viability was measured by MTT assay. Supernatant was stored.
(§4) At the first signal, we only observed a full inhibition of the inflammasome at 20 μM.

NLRP3 inflammasome = NLRP3 inflammasome activation in THP-1 macrophages, IL-1β by ELISA; type: cell-based
Method: as §3
In FIGS. 7A and 7B, supernatant stored from the previously described experiment were measured for IL-1β by ELISA.
as §4

RAW 264.7 cells = experiment: Cytotoxicity in RAW 264.7 cells (MTT assay); type: cell-based, murine; conditions: Mus musculus, RAW264.7, 24 h treatment, read-out: IC50 (cell viability)
Method: FIG. 8 NATx0 cell cytotoxicity was evaluated in RAW 264.7 cells at 1, 5, 10, 50 and 100 μM in DMSO. Cells were treated for 24 h with NATx0 and then MTT assay was performed. The absorbance at 570 nm was measured for each condition by triplicate. The % cell liability was calculated using control group (DMSO, without treatment). The half maximal inhibitory concentration (IC50) was calculated after % cell viability was plotted against the concentration of NATx0 and fitted to an exponential function using OriginLab software (version 8.0).

[3] = Stability in polyethylene glycol 300-400 at 37° C.; type: physicochemical; conditions: PEG 300 to PEG 400, 37° C., two weeks, RP-HPLC
Method: FIG. 10 presents the incubation of NATx0 incubated in PEG 300 to PEG 400 at 37° C. for two weeks. At each time point, an aliquot was extracted with methanol and analyzed by reverse phase chromatography as before. After two weeks in 37° C. in PEG, 50% of the initial concentration of NATx0 was recovered.

NF-κB/p65 = experiment: LPS-induced NF-κB/p65 nuclear translocation in THP-1 macrophages (immunofluorescence); type: cell-based; conditions: 10 uM, 2 hs before LPS (1 ug/mL)
Description: Nuclear factor kappa B (NF-κB) represents a family of pro-inflammatory transcription factors, present in all eukaryotic cells, which regulate inducible expression of wide ranging genes involved in immune responses and cell-cycle regulation. Activation of NF-κB is accompanied by nuclear translocation of NF-κB. […] Specifically, FIG. 11 illustrates immunofluorescence and epifluorescence microscopy analysis showing the effect of NATx0 on LPS-induced NF-κB/p65 subcellular localization in THP-1 macrophages.

serum levels of IL-1β = experiment: LPS-induced inflammatory response in C57BL/6 mice, serum IL-1β by ELISA; type: in vivo; conditions: 20 mg/kg i.p. 1 hour before 10 mg/kg LPS i.p., 2 hours after LPS
Method: In vivo testing was carried out in C57BL/6 mice. The mice were injected intraperitoneally (“i.p.”) with 20 mg/kg NATx0 or a control (DMSO) 1 hour before i.p. injection of 10 mg/kg LPS Escherichia coli 055:B5 (Sigma-Aldrich). After 2 hours the mice were killed, and serum levels of IL-1β were measured by ELISA to determine inflammatory response.

| Compound | HO-1 protein expression (HO-1) | GCLM protein expression (GCLM) | second order rate constant of the reaction with BME [1] | second order rate constant of the reaction with GSH [2] | cell mortality (cell viability by MTT) (THP-1 cells) | concentration giving full inhibition of the inflammasome (NLRP3 inflammasome; compound applied together with the first signal (LPS 250 ng/mL, 3 hours)) | concentration at which NLRP3 inflammasome activation is already inhibited (NLRP3 inflammasome; compound applied together with the second inflammasome-activating signal) | inhibition of inflammasome activation (IL-1β) (NLRP3 inflammasome; compound applied together with the second signal (ATP 5 mM, 45 minutes), 0.5-20 μM) | IC50 (RAW 264.7 cells) | initial concentration recovered [3] | LPS-induced NF-κB/p65 nuclear translocation (NF-κB/p65) | inflammatory response (serum IL-1β) (serum levels of IL-1β) |
| --- | --- | --- | --- | --- | --- | --- | --- | --- | --- | --- | --- | --- |
| CCC/C(=C\C1(C)CCc2c(C)c(O)c(C)c(C)c2O1)[N+](=O)[O-] (racemic) [NATx5, (±)-2,5,7,8-tetramethyl-2-[(E)-2-nitropent-1-en-1-yl]chroman-6-ol] | induced the expression | induced the expression | – | – | – | – | – | – | – | – | – | – |
| Cc1c(C)c2c(c(C)c1O)CCC(C)(/C=C/[N+](=O)[O-])O2 (racemic) [NATx0, (±)-2,5,7,8-tetramethyl-2-[(E)-2-nitrovinyl]chroman-6-ol] | induced the expression | induced the expression | 23.45 M⁻¹ s⁻¹ | 23.45 M⁻¹ s⁻¹ | does not induce an increase in cell mortality | 20 µM | 5 µM | inhibited inflammasome activation in dose dependent manner | 24 µM | 50% | no change from the negative control | did not increase |
